Experimental data reported in US9701689B2, “Substituted pyridines and pyridazines as CCR10 receptor inhibitors” (KYOWA HAKKO KIRIN CO., LTD., priority 2012, dated 2017).

Each molecule was assayed against T1, human CCR10 (Homo sapiens, UniProt P46092) (assay: CCR10 antagonistic effect: calcium assay of human CCR10 (CTACK-induced increase of intracellular calcium in hCCR10G16 cells)). Conditions: at a concentration of not more than 1000 nmol/L; human CCR10-expressing hCCR10G16 cells, 300 nmol/L CTACK added; read-out: inhibition of increase in the calcium ion concentration.
T1 construct: expressed in transfected cells; host or cells: KJMGER8 cells (Namalwa cell-derived line), beta-estradiol-induced; hCCR10G16 cells
T1 sequence (P46092 1-362): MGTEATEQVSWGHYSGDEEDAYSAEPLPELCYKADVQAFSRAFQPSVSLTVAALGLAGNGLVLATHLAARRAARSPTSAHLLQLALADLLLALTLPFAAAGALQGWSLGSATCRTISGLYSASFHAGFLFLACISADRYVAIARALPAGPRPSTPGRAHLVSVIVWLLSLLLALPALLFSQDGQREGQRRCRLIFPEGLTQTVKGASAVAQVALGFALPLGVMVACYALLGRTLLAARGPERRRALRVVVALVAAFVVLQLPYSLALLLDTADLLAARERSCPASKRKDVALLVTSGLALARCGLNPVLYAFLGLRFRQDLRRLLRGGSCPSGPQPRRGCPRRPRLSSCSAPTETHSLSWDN
Type: cell-based
Method in brief: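 KJMGER8-derived hCCR10G16 cells (CCR10 plus Gα16, induced 24 h with 10 nmol/L β-estradiol), Fluo-3 loaded, preincubated with compound 30 min at 37 °C. Stimulated with CTACK (300 nmol/L solution before addition); calcium read ~5 min by FDSS, max−min fluorescence; % inhibition vs control.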

SMILES	inhibition at up to 1 µM
Cc1c(S(=O)(=O)Nc2ccon2)ncc(C(=O)N2CCC(c3ccc(F)cc3)CC2)c1NCCN1CCOCC1 [Compound 224, 5-[4-(4-fluorophenyl)piperidine-1-carbonyl]-N-(isoxazol-3-yl)-3-methyl-4-(2-morpholinoethylamino)pyridine-2-sulfonamide]	≥ 50%
O=C(c1cnc(S(=O)(=O)Nc2ccon2)c(F)c1NCc1ccccc1)N1CCC(c2ccc(F)cc2)CC1 [Compound 225, 4-(benzylamino)-3-fluoro-5-[4-(4-fluorophenyl)piperidine-1-carbonyl]-N-(isoxazol-3-yl)pyridine-2-sulfonamide]	≥ 50%
CCNC(=O)NS(=O)(=O)c1ncc(C(=O)N2CCC(c3ccc(F)cc3)CC2)c(Nc2ccccc2C)c1C [Compound 226, N-(ethylcarbamoyl)-5-[4-(4-fluorophenyl)piperidine-1-carbonyl]-3-methyl-4-(o-tolylamino)pyridine-2-sulfonamide]	≥ 50%
Cc1c(S(=O)(=O)Nc2ccon2)ncc(C(=O)N2CCC(c3ccc(F)cc3)CC2)c1NCC1CCC1 [Compound 227, 4-(cyclobutylmethylamino)-5-[4-(4-fluorophenyl)piperidine-1-carbonyl]-N-(isoxazol-3-yl)-3-methylpyridine-2-sulfonamide]	≥ 50%
Cc1cc(F)ccc1Nc1cc(S(N)(=O)=O)nnc1C(=O)N1CCC(c2ccc(F)cc2)CC1 [Compound 229, 5-(4-fluoro-2-methylphenylamino)-6-[4-(4-fluorophenyl)piperidine-1-carbonyl]pyridazine-3-sulfonamide]	≥ 50%
COc1ccc(Nc2c(C(=O)N3CCC(c4ccc(F)cc4)CC3)cnc(S(=O)(=O)Nc3ccon3)c2C)c(C)c1 [Compound 234, 5-[4-(4-fluorophenyl)piperidine-1-carbonyl]-N-(isoxazol-3-yl)-4-(4-methoxy-2-methylphenylamino)-3-methylpyridine-2-sulfonamide]	≥ 50%
Cc1ccc(Nc2c(C(=O)N3CCC(c4ccc(F)cc4)CC3)cnc(S(=O)(=O)Nc3ccon3)c2C)c(F)c1 [Compound 235, 4-(2-fluoro-4-methylphenylamino)-5-[4-(4-fluorophenyl)piperidine-1-carbonyl]-N-(isoxazol-3-yl)-3-methylpyridine-2-sulfonamide]	≥ 50%
CCc1ccccc1Nc1c(C(=O)N2CCC(c3ccc(F)cc3)CC2)cnc(S(=O)(=O)Nc2ccon2)c1C [Compound 239, 4-(2-ethylphenylamino)-5-[4-(4-fluorophenyl)piperidine-1-carbonyl]-N-(isoxazol-3-yl)-3-methylpyridine-2-sulfonamide]	≥ 50%
Cc1cc(F)ccc1Nc1c(C(=O)N2CCC(c3ccc(F)cc3)CC2)nnc(S(N)(=O)=O)c1Cl [Compound 240, 4-chloro-5-(4-fluoro-2-methylphenylamino)-6-[4-(4-fluorophenyl)piperidine-1-carbonyl]pyridazine-3-sulfonamide]	≥ 50%
Cc1nc(C(F)(F)F)ccc1Nc1c(C(=O)N2CCC(c3ccc(F)cc3)CC2)cnc(S(N)(=O)=O)c1C [Compound 245, 5-[4-(4-fluorophenyl)piperidine-1-carbonyl]-3-methyl-4-[2-methyl-6-(trifluoromethyl)pyridin-3-ylamino]pyridine-2-sulfonamide]	≥ 50%
Cc1c(S(=O)(=O)Nc2ccon2)ncc(C(=O)N2CCC(c3ccc(F)cc3)CC2)c1Nc1cc(F)c(F)cc1F [Compound 246, 5-[4-(4-fluorophenyl)piperidine-1-carbonyl]-N-(isoxazol-3-yl)-3-methyl-4-(2,4,5-trifluorophenylamino)pyridine-2-sulfonamide]	≥ 50%
Cc1ncc(Cl)cc1Nc1c(C(=O)N2CCC(c3ccc(F)cc3)CC2)cnc(S(=O)(=O)Nc2ccon2)c1C [Compound 248, 4-(5-chloro-2-methylpyridin-3-ylamino)-5-[4-(4-fluorophenyl)piperidine-1-carbonyl]-N-(isoxazol-3-yl)-3-methylpyridine-2-sulfonamide]	≥ 50%

Continued, values first:

inhibition at up to 1 µM	SMILES
≥ 50%	Cc1c(S(N)(=O)=O)ncc(C(=O)N2CCC(c3ccc(F)cc3)CC2)c1NCc1cccc(C#N)c1 [Compound 228, 4-(3-cyanobenzylamino)-5-[4-(4-fluorophenyl)piperidine-1-carbonyl]-3-methylpyridine-2-sulfonamide]
≥ 50%	NS(=O)(=O)c1ncc(C(=O)N2CCC(c3ccc(F)cc3)CC2)c(NC2(c3ccccc3)CC2)c1Cl [Compound 230, 3-chloro-5-[4-(4-fluorophenyl)piperidine-1-carbonyl]-4-(1-phenylcyclopropylamino)pyridine-2-sulfonamide]
≥ 50%	NS(=O)(=O)c1ncc(C(=O)N2CCC(c3ccc(F)cc3)CC2)c(NCc2cccs2)c1Cl [Compound 231, 3-chloro-5-[4-(4-fluorophenyl)piperidine-1-carbonyl]-4-(thiophen-2-ylmethylamino)pyridine-2-sulfonamide]
≥ 50%	NS(=O)(=O)c1ncc(C(=O)N2CCC(c3ccc(F)cc3)CC2)c(N[C@H]2C[C@H]3CC[C@@H]2C3)c1Cl [Compound 236, 4-((1R,2S,4S)-bicyclo[2.2.1]heptan-2-ylamino)-3-chloro-5-[4-(4-fluorophenyl)piperidine-1-carbonyl]pyridine-2-sulfonamide]
≥ 50%	NS(=O)(=O)c1ncc(C(=O)N2CCC(c3ccc(F)cc3)CC2)c(NC2CCc3ccccc32)c1Cl (stereo not shown) [Compound 237, 3-chloro-4-(2,3-dihydro-1H-inden-1-ylamino)-5-[4-(4-fluorophenyl)piperidine-1-carbonyl]pyridine-2-sulfonamide]
≥ 50%	NS(=O)(=O)c1ncc(C(=O)N2CCC(c3ccc(F)cc3)CC2)c(Oc2cccc(F)c2)c1Cl [Compound 238, 3-chloro-4-(3-fluorophenoxy)-5-[4-(4-fluorophenyl)piperidine-1-carbonyl]pyridine-2-sulfonamide]
≥ 50%	Cn1ncc2cc(Nc3c(C(=O)N4CCC(c5ccc(F)cc5)CC4)cnc(S(N)(=O)=O)c3Cl)ccc21 [Compound 242, 3-chloro-5-[4-(4-fluorophenyl)piperidine-1-carbonyl]-4-(1-methyl-1H-indazol-5-ylamino)pyridine-2-sulfonamide]
≥ 50%	NS(=O)(=O)c1ncc(C(=O)N2CCC(c3ccc(F)cc3)CC2)c(Nc2ccc3c(c2)CCC3=O)c1Cl [Compound 243, 3-chloro-5-[4-(4-fluorophenyl)piperidine-1-carbonyl]-4-(1-oxo-2,3-dihydro-1H-inden-5-ylamino)pyridine-2-sulfonamide]
≥ 50%	Cc1c(S(=O)(=O)Nc2ccon2)ncc(C(=O)N2CCC(c3ccc(F)cc3)CC2)c1Nc1cccc(Cl)c1 [Compound 244, 4-(3-chlorophenylamino)-5-[4-(4-fluorophenyl)piperidine-1-carbonyl]-N-(isoxazol-3-yl)-3-methylpyridine-2-sulfonamide]
≥ 50%	Cc1c(S(=O)(=O)Nc2ccon2)ncc(C(=O)N2CCC(c3ccc(F)cc3)CC2)c1Nc1ccc2c(c1)COC2 [Compound 247, 4-(1,3-dihydroisobenzofuran-5-ylamino)-5-[4-(4-fluorophenyl)piperidine-1-carbonyl]-N-(isoxazol-3-yl)-3-methylpyridine-2-sulfonamide]
